This is an account of results in ChEMBL document CHEMBL1201862, “PubChem BioAssay data set” (2004).

Test in all cases: NCI-60 cell line screen, 48 h
Test [1] has as its system A498.
For test [2], the system named is COLO 205.
For test [3], the system named is EKVX.
Test [4] has as its system HCC 2998.
In test [5] the test system is IGROV-1.
In test [6] the test system is LOX IMVI.
Test [7] deals with MOLT-4.
The test system of test [8] is NCI-H23.
Test [9] concerns OVCAR-3.
Test [10] deals with OVCAR-8.
Test [11] deals with SF-268.
The subject of test [12] is SF-295.
Test [13] concerns SK-OV-3.
Test [14] deals with SN12C.
The test system of test [15] is SNB-19.
Test [16] has as its system SNB-75.
The subject of test [17] is U-251.
In test [18] the test system is UACC-257.
Test [19] concerns UACC-62.
In test [20] the test system is CAKI-1.

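48-hour exposure; five concentrations; linearly interpolated endpoints. GI50 is the concentration that inhibits growth by half.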 The source made the active and inactive calls. No stated cut-off is given here; in the data, active = GI50 up to about 1.1 µM and inactive = higher.

As to `Nc1nc(Cl)cc(NCCCCO)n1`, the GI50 in [1], in test [2], in test [3], in [4], in test [5] and in test [6] was > 100 µM (inactive) each time. Also, the GI50 in test [7] is > 100 µM (inactive); in [8], > 100 µM (inactive); in test [9] it was > 10 µM (inactive); in [10] it was > 100 µM (inactive); in test [11] it was > 100 µM (inactive); in test [12], > 100 µM (inactive). Also, the GI50 in [13] is > 100 µM (inactive); in [14], > 100 µM (inactive); in test [15], > 100 µM (inactive); in [16], 65.3 µM (inactive); in [17], > 100 µM (inactive); in [18], > 100 µM (inactive). Further, the GI50 in test [19] was > 100 µM (inactive).
`Oc1[nH]c(Nc2cccc(CC(F)(F)F)c2)nc2ncnc1-2`: the GI50 in [1], in [20], in test [2], in [3], in test [4] and in test [5] was > 100 µM (inactive) in each case. The GI50 in [6], in [8], in test [9], in [10], in [11] and in test [12] was > 100 µM (inactive) in each case. In addition, the GI50 in test [13] was > 100 µM (inactive); in test [14], > 100 µM (inactive); in [15] it was > 100 µM (inactive); in test [16], 95.5 µM (inactive); in [17], > 100 µM (inactive); in [18] it was > 100 µM (inactive). For the same compound, the GI50 in test [19] is > 100 µM (inactive).
Regarding `C=C1C(O)C2(O)OCC34C(CC5C(C)=CC(=O)C(O)C5(C)C23)OC(=O)C(OC(=O)C/C=C/CCCCCCCC)C14` (stereo not given), the GI50 is 0.0254 µM (active) in [1]; 0.0449 µM (active) in test [20]; 0.0241 µM (active) in test [2]; 0.02 µM (active) in [3]; 0.02 µM (active) in [4]; 0.02 µM (active) in [5]. Besides, the GI50 in [6] is 0.0237 µM (active); in [7] it was 0.02 µM (active); in test [8], 0.02 µM (active); in test [10], 0.02 µM (active); in [11] it was 0.0209 µM (active); in test [13], 0.056 µM (active). Besides, the GI50 in test [14] was 0.0275 µM (active); in [15] it was 0.0212 µM (active); in test [16], 0.0228 µM (active); in test [17], 0.02 µM (active); in [19], 0.0214 µM (active).
On to `COC(C[C@H]1CCCC[C@]1(O)/C(=C\CO[Si](C(C)C)(C(C)C)C(C)C)Sc1ccccc1)OC`, for which the GI50 is > 100 µM (inactive) in test [1]; 32.4 µM (inactive) in [20]; 20.9 µM (inactive) in test [2]; 37.4 µM (inactive) in test [3]; 16.5 µM (inactive) in test [4]; 52.7 µM (inactive) in test [5]. The GI50 in test [6] was 18 µM (inactive); in test [7], 17.3 µM (inactive); in test [8] it was 25.8 µM (inactive); in [10], 49.8 µM (inactive); in test [11], 28.3 µM (inactive); in test [12], 32.4 µM (inactive). In addition, the GI50 is > 100 µM (inactive) in test [13]; 39.5 µM (inactive) in test [14]; 26.7 µM (inactive) in test [15]; 18.1 µM (inactive) in [16]; 22.1 µM (inactive) in test [17]; 42.4 µM (inactive) in test [18]. In addition, the GI50 in test [19] was > 100 µM (inactive).
On to `CON(C)c1nc(N)c(C#N)c(C#N)c1C#N`, for which the GI50 in [1], in [20], in test [2], in [3], in test [4] and in test [5] was > 10 µM (inactive) throughout. The GI50 was > 10 µM (inactive) in test [6]; > 10 µM (inactive) in test [7]; > 10 µM (inactive) in [8]; 2.28 µM (inactive) in test [9]; > 10 µM (inactive) in test [10]; > 10 µM (inactive) in [11]. Besides, the GI50 in test [12], in test [13], in test [14], in test [15], in [16] and in test [17] was > 10 µM (inactive) throughout. Besides, in [19], the GI50 is > 10 µM (inactive).
Regarding `CSc1nc(NC2OCC(O)C(O)C2O)c(N)c(=O)n1C` (stereo not given), the GI50 in test [1], in test [2], in [3], in test [4], in test [5] and in [6] was > 100 µM (inactive) each time. For the same compound, the GI50 in test [7], in test [8], in test [9], in test [10], in test [11] and in test [12] was > 100 µM (inactive) in each case. The GI50 was > 100 µM (inactive) in test [13]; > 100 µM (inactive) in test [14]; > 100 µM (inactive) in test [15]; 51.6 µM (inactive) in [16]; > 100 µM (inactive) in test [17]; > 100 µM (inactive) in test [18]. Further, the GI50 in test [19] is > 100 µM (inactive).
Consider `CCC1NC(/N=N/c2ccc([N+](=O)[O-])cc2)(P(=O)(OC(C)C)OC(C)C)OC1=O` (stereo not given), for which the GI50 in [1], in [20], in test [2], in test [3], in test [4] and in [5] was > 100 µM (inactive) throughout. Also, the GI50 in test [7], in [8], in test [9], in test [10], in test [11] and in test [12] was > 100 µM (inactive) throughout. The GI50 in [13] is > 100 µM (inactive); in test [14], > 100 µM (inactive); in test [15], > 100 µM (inactive); in test [16] it was 23.6 µM (inactive); in [17], > 100 µM (inactive); in test [18], > 100 µM (inactive). Further, in [19], the GI50 is 97.1 µM (inactive).
Take `O=P(Nc1ccc(Cl)cc1)(Oc1ccccc1)N(CCCl)CCCl` (stereo not given): the GI50 in test [1], in [20], in [2], in test [3], in [4] and in [5] was > 100 µM (inactive) each time. Further, the GI50 in [7], in test [8], in [9], in test [10], in test [11] and in [12] was > 100 µM (inactive) throughout. Moreover, the GI50 in [13] is > 100 µM (inactive); in [14], > 100 µM (inactive); in test [16], 33.7 µM (inactive); in [17], > 100 µM (inactive); in test [18] it was > 100 µM (inactive); in test [19] it was > 100 µM (inactive).
In the case of `CC(C)(C)OC(=O)/C=C/C(=O)O/C=C/[N+](=O)[O-]`, the GI50 in [1], in test [20], in [2], in [3], in test [4] and in test [5] was > 100 µM (inactive) in each case. Further, the GI50 in test [6], in test [8], in test [9], in test [10], in test [11] and in test [12] was > 100 µM (inactive) in each case. Also, the GI50 in test [13], in test [14], in test [16], in test [17], in [18] and in [19] was > 100 µM (inactive) throughout.
`O=S(O)CCCCCSSc1ccccc1`: the GI50 in test [1] was 48.5 µM (inactive); in test [3], > 100 µM (inactive); in test [4] it was > 100 µM (inactive); in test [6] it was 20 µM (inactive); in test [7], 8.13 µM (inactive); in [8], 52.5 µM (inactive). Further, the GI50 in test [9] was 43.7 µM (inactive); in test [11], 15.8 µM (inactive); in test [13] it was > 100 µM (inactive); in test [14] it was 27.8 µM (inactive); in [15] it was > 100 µM (inactive); in test [16] it was 37.3 µM (inactive). The GI50 in [17] was 21.3 µM (inactive); in test [18] it was 39 µM (inactive); in test [19], 28.3 µM (inactive).
For the compound `Oc1cc(-c2ccc(Cl)cc2)nc2ncccc12`, the GI50 is 68.1 µM (inactive) in [1]; 61.9 µM (inactive) in [20]; 21.7 µM (inactive) in test [2]; 52.2 µM (inactive) in test [3]; 69 µM (inactive) in test [4]; 44.3 µM (inactive) in test [5]. The GI50 in test [6] is 49 µM (inactive); in [7] it was 40.2 µM (inactive); in [8], 86.5 µM (inactive); in test [10], 61.9 µM (inactive); in test [11] it was 53.2 µM (inactive); in test [13] it was 46 µM (inactive). In addition, the GI50 in test [14] was 75.9 µM (inactive); in [15], 64.1 µM (inactive); in [16] it was 24.5 µM (inactive); in [17], 36.6 µM (inactive); in test [18] it was 53.5 µM (inactive); in test [19] it was 28.9 µM (inactive).
